Reference: PubChem BioAssay (NCI)
Values joined by “and” are separate entries in the source; they are usually repeats but may differ in a detail not shown here. Identical values can stand only once.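 Results reflect a 48-hour exposure of cells in 96-well plates to compound at five concentrations. Here, GI50 denotes the concentration required for 50% inhibition of growth. At the TGI there is no net growth.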

Experiments:
Experiment in all cases: growth of human tumour cells (NCI), 48 h
MDA-MB-231 breast = test system: MDA-MB-231 breast
HOP-92 NSCLC = test system: HOP-92 NSCLC
HS 578T breast = test system: HS 578T breast
MOLT-4 leukemia = test system: MOLT-4 leukemia
SR leukemia = test system: SR leukemia
OVCAR-5 ovarian = test system: OVCAR-5 ovarian
A498 renal = test system: A498 renal
ACHN renal = test system: ACHN renal
SF-295 CNS = test system: SF-295 CNS
UACC-257 melanoma = test system: UACC-257 melanoma
UACC-62 melanoma = test system: UACC-62 melanoma
OVCAR-8 ovarian = test system: OVCAR-8 ovarian
HT29 colon = test system: HT29 colon
K-562 leukemia = test system: K-562 leukemia
HL-60(TB) leukemia = test system: HL-60(TB) leukemia
U251 CNS = test system: U251 CNS
MDA-N = test system: MDA-N
CCRF-CEM leukemia = test system: CCRF-CEM leukemia
RPMI-8226 leukemia = test system: RPMI-8226 leukemia
NCI-H522 lung = test system: NCI-H522 lung
SK-MEL-5 melanoma = test system: SK-MEL-5 melanoma
LOX IMVI melanoma = test system: LOX IMVI melanoma
HCT-15 colon = test system: HCT-15 colon
HCC-2998 colon = test system: HCC-2998 colon
SF-539 CNS = test system: SF-539 CNS
IGROV1 ovarian = test system: IGROV1 ovarian
KM12 colon = test system: KM12 colon
SK-MEL-2 melanoma = test system: SK-MEL-2 melanoma
SK-OV-3 ovarian = test system: SK-OV-3 ovarian
MALME-3M melanoma = test system: MALME-3M melanoma
SW-620 colon = test system: SW-620 colon
A549 NSCLC = test system: A549 NSCLC
NCI-H460 lung = test system: NCI-H460 lung
NCI/ADR-RES ovarian = test system: NCI/ADR-RES ovarian
OVCAR-4 ovarian = test system: OVCAR-4 ovarian
786-0 renal = test system: 786-0 renal
DU-145 prostate = test system: DU-145 prostate
TK-10 renal = test system: TK-10 renal
HCT-116 colon = test system: HCT-116 colon
M14 melanoma = test system: M14 melanoma
UO-31 renal = test system: UO-31 renal
NCI-H23 lung = test system: NCI-H23 lung
HOP-62 NSCLC = test system: HOP-62 NSCLC
EKVX NSCLC = test system: EKVX NSCLC
SK-MEL-28 melanoma = test system: SK-MEL-28 melanoma
RXF 393 renal = test system: RXF 393 renal
COLO 205 colon = test system: COLO 205 colon
SN12C renal = test system: SN12C renal
NCI-H226 lung = test system: NCI-H226 lung
PC-3 prostate = test system: PC-3 prostate
CAKI-1 renal = test system: CAKI-1 renal
OVCAR-3 ovarian = test system: OVCAR-3 ovarian
MCF7 breast = test system: MCF7 breast
SF-268 CNS = test system: SF-268 CNS

## COc1cccc(-c2cc(=O)c3cc(OC)ccc3[nH]2)c1
MDA-MB-231 breast
  TGI: 4530 nM and 21600 nM
HOP-92 NSCLC
  GI50: 7150 nM
HS 578T breast
  TGI: 885 nM
MOLT-4 leukemia
  GI50: 41.1 nM
SR leukemia
  TGI: 664 nM
OVCAR-5 ovarian
  GI50: 528 nM
  TGI: > 100000 nM
A498 renal
  TGI: 111 nM
ACHN renal
  GI50: 661 nM
  TGI: > 100000 nM
SF-295 CNS
  GI50: 292 nM
UACC-257 melanoma
  GI50: 32.5 nM
  TGI: > 100000 nM
UACC-62 melanoma
  GI50: 45.9 nM
  TGI: > 100000 nM
OVCAR-8 ovarian
  GI50: 790 nM
HT29 colon
  TGI: 1420 nM
K-562 leukemia
  GI50: 28.8 nM
  TGI: 393 nM
HL-60(TB) leukemia
  GI50: 19.4 nM
  TGI: 405 nM and 53.6 nM
U251 CNS
  GI50: 57 nM
  TGI: 3360 nM and 13200 nM
MDA-N
  TGI: 131 nM
CCRF-CEM leukemia
  GI50: 28.1 nM
  TGI: 248 nM
RPMI-8226 leukemia
  GI50: 28.8 nM
NCI-H522 lung
  GI50: 121 nM and 37.3 nM
  TGI: 392 nM and 175 nM
SK-MEL-5 melanoma
  TGI: 2570 nM
LOX IMVI melanoma
  GI50: 62.4 nM
HCT-15 colon
  GI50: 48.5 nM
HCC-2998 colon
  GI50: 118 nM
  TGI: 2590 nM and 443 nM
SF-539 CNS
  TGI: 451 nM
IGROV1 ovarian
  GI50: 250 nM
  TGI: > 100000 nM
KM12 colon
  GI50: 67.1 nM
  TGI: > 100000 nM
SK-MEL-2 melanoma
  GI50: 77.4 nM
  TGI: 7110 nM and 20200 nM
SK-OV-3 ovarian
  TGI: 41500 nM
MALME-3M melanoma
  GI50: 47.9 nM
  TGI: > 100000 nM
SW-620 colon
  GI50: 44.5 nM
  TGI: > 100000 nM
A549 NSCLC
  GI50: 305 nM
  TGI: > 100000 nM
NCI-H460 lung
  GI50: 82.3 nM
  TGI: > 100000 nM
NCI/ADR-RES ovarian
  TGI: 445 nM
OVCAR-4 ovarian
  TGI: > 100000 nM
786-0 renal
  GI50: 150 nM
  TGI: 65300 nM
DU-145 prostate
  GI50: 186 nM
TK-10 renal
  TGI: 84900 nM
HCT-116 colon
  GI50: 54.1 nM
  TGI: 22600 nM
M14 melanoma
  GI50: 84 nM
  TGI: 41500 nM
UO-31 renal
  GI50: 484 nM
  TGI: > 100000 nM
NCI-H23 lung
  GI50: 358 nM
HOP-62 NSCLC
  GI50: 401 nM
  TGI: 29700 nM
EKVX NSCLC
  GI50: 5850 nM
  TGI: > 100000 nM
SK-MEL-28 melanoma
  GI50: 612 nM and 85.2 nM
  TGI: > 100000 nM
RXF 393 renal
  GI50: 14.4 nM
  TGI: 224 nM
COLO 205 colon
  GI50: 74.1 nM
  TGI: 480 nM and 411 nM
SN12C renal
  GI50: 398 nM
  TGI: 47700 nM
NCI-H226 lung
  GI50: 121 nM
  TGI: 1570 nM and 7230 nM
PC-3 prostate
  GI50: 112 nM
  TGI: > 100000 nM
CAKI-1 renal
  GI50: 31.9 nM
  TGI: > 100000 nM
OVCAR-3 ovarian
  GI50: 25 nM
  TGI: 384 nM and 81.2 nM
MCF7 breast
  GI50: 296 nM
  TGI: > 100000 nM
SF-268 CNS
  GI50: 626 nM
  TGI: 24200 nM
